# Assay results from the NIST ThermoML archive (doi:10.1021/acs.jced.6b00149).
# Numbers after ± are expanded uncertainties.
# Test: refractive index (Na D-line) (dimensionless)
# Details: 298.15 K; 101.33 kPa; Liquid; Standard Abbe refractometry
row,Compound,refractive index
1,O=Cc1ccco1 [2-furaldehyde],1.52263 ± 0.001
2,CC(C)=O [acetone],1.35553 ± 0.001
3,O [water],1.33249 ± 0.001
4,COC(C)(C)C [2-methoxy-2-methylpropane],1.36594 ± 0.001
